Publication PMC10778758, “Dithioethanol (DTE)-Conjugated Deoxyribose Cyclic Dinucleotide Prodrugs (DTE-dCDNs) as STING Agonist” (International Journal of Molecular Sciences, 2023)

Tests used:
[1] = system: THP-1 cells; assay: ELISA of IFN-β protein levels in THP-1 culture supernatants; assay type: cell-based, human; settings: 4 h
Method: Enzyme-Linked Immunosorbent Assay (ELISA). THP-1 cells were incubated with the compounds for 4 h. Cell culture supernatants were then analyzed via ELISA for human IFN-β levels (ABclonal, Woburn, MA, USA, catalogue no. RK01630) according to the manufacturer’s instructions. […]
(§1) expression levels of IFN-β were assessed by real-time quantitative PCR (qPCR) under the treatment of prodrug 9 (10 μM), 3′,3′-c-di-dAMP (100 μM), 2′,3′-cGAMP (100 μM) and ADU-S100 (10 μM) for 4 h.
Figure S3. Prodrug 9 stimulated the production of IFN-β in THP-1 cells. Under the treatment of prodrug […]
levels of IFN-β were assessed by an enzyme-linked immunosorbent assay (ELISA).
(also on this page, place not known: t reatment -S100 9 3',3'-c-di-dAMPADU-S100 IFN-β/β-actin IFN-β in Culture Medium (pg/ml)) […]

[2] = Release of parent dCDN from prodrug 9 initiated by DTT or GSH (HPLC); assay type: in vitro ADME
Method: To analyze the reduction dependency, we performed the in vitro cleavage test by incubating prodrug 9 with a reductive substance such as GSH or DTT and cell lysates at 37 °C and then determined the change with HPLC. […] As the reductive substance or cell lysates were added, the peak for prodrug 9 disappeared and the new peaks at 1.2 min appeared in 0.5 h and 2 h, respectively. The released parent dCDN was also confirmed with 3′,3′-c-di-dAMP through UPLC-MS (Figure S1).
Amounts of 10 mM DTT or GSH were added into prodrug 9 (100 μM) in an air-bath incubator at 37 °C for 0.5 h. Afterwards, 10 μL of each mixture was injected into HPLC for analysis. The HPLC methodology was the same as above.
Figure 3 Parent dCDNs release in GSH, DTT (a), and cell lysates (b). An amount of 100 μM prodrug 9 was added into the 10 mM GSH, 10 mM DTT, and cell lysates for various times (0.5 h and 2 h) at 37 °C and analyzed with HPLC (Agilent 1260, Santa Clara, CA, USA).

[3] = system: HEK293T cells; assay: CCK8 cell viability, HEK293T cells; assay type: cell-based; settings: 10 μM, 24 h
Method: Cell viability of THP-1 and HEK293T cells. A total of 5 × 10^3 HEK293T cells or THP-1 cells were seeded in 96-well plates. […] Cell counting kit-8 (CCK8) (US EVERBRIGHT, Newport Beach, CA, USA, c6005) was then used to quantitatively assess the cell viability through the OD value at 450 nm. The HEK293T cell line was obtained from American Type Culture Collection (ATCC).
Figure 8 Cell viability of THP-1 and HEK293T cells stimulated by prodrug 9 and 2′,3′-cGAMP. (a) A total of 5 × 10^3 THP-1 cells or (b) HEK293T cells were seeded in 96-well plates. Cells were stimulated with prodrug 9 (10 μM), 3′,3′-c-di-dAMP (100 μM), and 2′,3′-cGAMP (100 μM) for 24 h. Then, cell counting kit-8 (CCK8) (US EVERBRIGHT, c6005) was used to quantitatively assess cell viability through the OD value at 450 nm. Data are presented as mean ± SD, n = 3.

[4] = In vitro serum stability assay in 20% fetal bovine serum; assay type: in vitro ADME; settings: bovine, 20% fetal bovine serum, pH 7.4, 20% FBS, 37 °C, read-out: T1/2 (half-life period) (converted)
Method: In vitro serum stability assay. Each compound (100 μM) was incubated at 37 °C in the reaction buffer including 20% fetal bovine serum (FBS, GIBCO, Thermo Fisher Scientific, Waltham, MA, USA), 10 mM PBS (pH 7.4), and 1 mM MgCl2. At various times, aliquots of the reaction mixture were collected and stopped by adding 50 μL MeCN and diluted with 50 μL water. The reaction mixture was then centrifuged at 10,000 rpm for 5 min, leaving 100 μL supernatant for the HPLC assay. An amount of 10 μL of each aliquot was injected directly into HPLC (Agilent 1260 Infinity HPLC equipped with a UV detector; column Agilent ZORABX SB-C18 5 μm [4.6 × 150 mm; detection at 254 nm; column temperature 25 °C] for analysis. Amounts of 10 mM TEAA buffer (solvent A) and MeCN (solvent B) were used as the mobile phase with a flow rate of 1 mL/min. The gradient was set as the following: 0–2 min: 98% A/2% B; 2–6 min: 98% A/2% B to 100% B; 6–10 min: 100% B; 10–13 min: 100% B to 98% A/2% B; 13–15 min: 98% A/2% B. The % remaining of the test compounds after incubation in the serum was then calculated.
Figure 4 Parent dCDN of DTE-dCDN prodrug 9 retained a high serum stability. The serum stability analysis of (a) prodrug 9, (b) 3′,3′-c-di-dAMP, (c) 2′,3′-cGAMP and (d) ADU-S100 were determined in 20% FBS. Each compound (100 μM) was incubated in 20% FBS at 37 °C. At various times (0, 2, 4, 8, 12, 24, 48, 72 h), aliquots of the reaction mixture were analyzed with HPLC at 254 nm. The % remaining of test compounds after incubation in serum was calculated.

[5] = system: CT-26 cells; assay: RT-qPCR of IFN-β mRNA in CT-26 cells; assay type: cell-based; settings: CT-26, prodrug 9 and ADU-S100 10 μM, CDNs 100 μM, 4 h
Method: Real-time quantitative PCR (RT-qPCR). The mRNA expression levels of diverse cytokines were measured using quantitative RT-PCR (RT-qPCR) assays. THP-1 cells or CT26 cells were incubated with the compounds for 4 h, subsequently harvested for RNA isolation according to the manufacturer’s instructions of RNApure Tissue&Cell Kit (DNase I) (CWBIO, Cambridge, MA, USA catalogue no. CW0560S). Next, 1 μg RNA was reversely transcribed to cDNA by TransScript All-in-One First-Strand cDNA Synthesis SuperMix for qPCR (One-Step gDNA Removal) (TransGen, Beijing, China). To examine the mRNA levels, real-time PCR was performed in a CFX96 Real-Time PCR system (Bio-RAD, Hercules, CA, USA) using PerfectStart Green qPCR Super Mix (TransGen) and primers (Sangon Biotech, Shanghai, China). The expression level was calculated according to the formula (2^−∆∆Ct) using the GAPDH or β-actin as the internal reference gene and the relative gene expression fold was normalized to the DMSO-treated cells. The THP-1 and CT26 cell lines were obtained from American Type Culture Collection (ATCC, Manassas, VA, USA). […]
as §1
Figure S3. […]
levels of IFN-β were assessed by an enzyme-linked immunosorbent assay (ELISA). […]

time at which prodrug peak disappeared and parent dCDN peak appeared ([2]; 100 μM prodrug, 10 mM GSH or DTT, 37 °C): 0.5 h
time to decompose and release the parent dCDN ([2]; reductive substance GSH or DTT): 30 min
half-life at 100 μM [4]: 28 h
Structure (SMILES): Nc1ncnc2c1ncn2C1CC2OP(=O)(OCCSSc3ccccn3)OCC3OC(n4cnc5c(N)ncnc54)CC3OP(=O)(OCCSSc3ccccn3)OCC2O1 (centres unmarked) [prodrug 9]
IFN-β protein level, fold compared to 2′,3′-cGAMP ([1]; THP-1, prodrug 9 10 μM vs 2′,3′-cGAMP 100 μM): approximately 66 fold
IFN-β protein level, fold compared to 3′,3′-c-di-dAMP ([1]; THP-1, prodrug 9 10 μM vs 3′,3′-c-di-dAMP 100 μM): ~4.3 fold
IFN-β protein level, fold compared to ADU-S100 ([1]; THP-1, prodrug 9 10 μM vs ADU-S100 10 μM): ~5.6 fold
cell viability (CCK8), HEK293T cells [3]: no significant influence on the growth
induction of IFN-β transcription in CT-26 cells [5]: did not
